Measurements as given in PubChem BioAssay (NCI).
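Assay format: 96-well plates, 48-hour exposure. GI50 marks 50% less growth. TGI: concentration producing complete growth inhibition.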

How the values were obtained:
Test in all cases: NCI anticancer screen, dose series, 48 h
[1] = system: KM12 colon
[2] = system: HOP-92 NSCLC
[3] = system: PC-3 prostate
[4] = system: SF-295 CNS
[5] = system: SK-OV-3 ovarian
[6] = system: UACC-257 melanoma
[7] = system: IGROV1 ovarian
[8] = system: A498 renal
[9] = system: COLO 205 colon
[10] = system: SF-539 CNS

O=C1CN(c2cccc(Cl)c2)C(=O)CN1CCN1CC(=O)N(c2cccc(Cl)c2)CC1=O was tested, and the TGI [1] was > 100 µM, the TGI [2] was > 100 µM and the TGI [3] was > 100 µM. The TGI [4] was > 100 µM, the TGI [5] was > 100 µM and the TGI [6] was > 100 µM. The TGI [7] was > 100 µM, the TGI [8] was > 100 µM and the TGI [9] was > 100 µM. For the same compound, the TGI [10] was > 100 µM.
In the case of COC[C@H]1Cn2cc(-c3nc(Nc4ccnn4C)ncc3C)nc2C(=O)N1Cc1ccc(F)c(F)c1, the GI50 [1] is reported as 0.586 µM, the TGI [1] is reported as > 100 µM and the GI50 [2] is reported as 0.21 µM. The TGI [2] was > 26.4 µM, the GI50 [3] was > 100 µM and the TGI [3] was > 100 µM. For the same compound, the GI50 [4] was > 100 µM, the TGI [4] was > 100 µM and the GI50 [5] was 35.9 µM. For the same compound, the TGI [5] was > 100 µM, the GI50 [6] was 0.0352 µM and the TGI [6] was > 100 µM. The GI50 [7] was 0.315 µM, the TGI [7] was > 100 µM and the GI50 [8] was 0.0405 µM. The TGI [8] was 0.291 µM, the GI50 [9] was 0.0203 µM and the TGI [9] was > 100 µM. For the same compound, the GI50 [10] was 27.1 µM and the TGI [10] was > 100 µM.
For COc1ccc2nc3cc(Cl)ccc3c(NCCNCC(C)O)c2c1 (stereo not given), the GI50 [1] was 2.02 µM, the TGI [1] was 8.74 µM and the GI50 [2] was 2.6 µM. For the same compound, the TGI [2] was 6.68 µM, the GI50 [3] was 2.33 µM and the TGI [3] was 5.86 µM. For the same compound, the GI50 [4] was 1.68 µM, the TGI [4] was 6.71 µM and the GI50 [5] was 2.58 µM. The TGI [5] was 9.75 µM, the GI50 [6] was 2.14 µM and the TGI [6] was 3.73 µM. For the same compound, the GI50 [7] was 2.69 µM, the TGI [7] was 10.2 µM and the GI50 [8] was 1.28 µM. The TGI [8] was 2.84 µM, the GI50 [9] was 1.11 µM and the TGI [9] was 2.79 µM. The GI50 [10] was 1.65 µM and the TGI [10] was 3.51 µM.
With COc1cc(-c2ccc3cc(OC)c(OC)c(OC)c3c2)cc(OC)c1OC the GI50 [1] was 5.93 µM, the TGI [1] was > 100 µM and the GI50 [2] was 2.17 µM. The TGI [2] was 14.1 µM, the GI50 [3] was 5.81 µM and the TGI [3] was > 100 µM. For the same compound, the GI50 [5] was 34.4 µM, the TGI [5] was > 100 µM and the GI50 [6] was > 100 µM. The TGI [6] was > 100 µM, the GI50 [7] was 40.4 µM and the TGI [7] was > 100 µM. For the same compound, the GI50 [8] was 11.1 µM, the TGI [8] was 91.8 µM and the GI50 [9] was > 100 µM. For the same compound, the TGI [9] was > 100 µM, the GI50 [10] was 23.6 µM and the TGI [10] was > 100 µM.
With Nc1n[nH]c2cc(F)c([C@@H]3Nc4ccc5[nH]ncc5c4[C@H]4C5CCC(C5)[C@@H]34)cc12 (stereo not given in full) the GI50 [1] was 0.18 µM, the TGI [1] was 4.01 µM and the GI50 [2] was 0.24 µM. For the same compound, the TGI [2] was 9.01 µM, the GI50 [3] was 0.238 µM and the TGI [3] was 18.7 µM. It also gave a GI50 [4] of 0.12 µM, a TGI [4] of 6.03 µM and a GI50 [5] of 0.359 µM. For the same compound, the TGI [5] was > 32.1 µM, the GI50 [6] was 3.98 µM and the TGI [6] was 44.8 µM. For the same compound, the GI50 [7] was 0.218 µM, the TGI [7] was 15.6 µM and the GI50 [8] was 0.0787 µM. The TGI [8] was 0.288 µM, the GI50 [9] was 0.162 µM and the TGI [9] was 0.527 µM. The GI50 [10] was 0.115 µM and the TGI [10] was 0.322 µM.
In the case of N#Cc1c[nH]n2c(N=Nc3ccc(Cl)cc3)c(O)nc12, the GI50 [1] is reported as 29.4 µM, the TGI [1] is reported as > 100 µM and the GI50 [2] is reported as 13.1 µM. The TGI [2] was 52.2 µM, the GI50 [3] was 23.1 µM and the TGI [3] was > 100 µM. For the same compound, the GI50 [4] was 30.1 µM, the TGI [4] was > 100 µM and the GI50 [5] was 37 µM. For the same compound, the TGI [5] was > 100 µM, the GI50 [6] was 20.1 µM and the TGI [6] was 57.9 µM. For the same compound, the GI50 [7] was 50.5 µM, the TGI [7] was > 100 µM and the GI50 [8] was 44.2 µM. The TGI [8] was 96.3 µM, the GI50 [9] was 29 µM and the TGI [9] was > 100 µM. It also gave a GI50 [10] of 26.9 µM and a TGI [10] of 54.1 µM.
With CC1SC(c2ccc(F)cc2)N(NC(=O)C(O)c2ccccc2)C1=O (stereo not given) the GI50 [1] was > 100 µM, the TGI [1] was > 100 µM and the GI50 [2] was > 100 µM. The TGI [2] was > 100 µM, the GI50 [3] was > 100 µM and the TGI [3] was > 100 µM. For the same compound, the GI50 [4] was > 100 µM, the TGI [4] was > 100 µM and the GI50 [6] was > 100 µM. The TGI [6] was > 100 µM, the GI50 [7] was > 100 µM and the TGI [7] was > 100 µM. For the same compound, the GI50 [8] was > 100 µM, the TGI [8] was > 100 µM and the GI50 [10] was > 100 µM. For the same compound, the TGI [10] was > 100 µM.
Compound Cc1nnc(NC(=O)c2nc(S(=O)(=O)Cc3ccc(F)cc3)ncc2Cl)s1 has a GI50 [1] of 18.5 µM, a TGI [1] of 37 µM and a GI50 [2] of 1.66 µM. The TGI [2] was 3.22 µM, the GI50 [3] was 10 µM and the TGI [3] was 22.9 µM. For the same compound, the GI50 [4] was 15.9 µM, the TGI [4] was 30.7 µM and the GI50 [5] was 17.9 µM. The TGI [5] was 32 µM, the GI50 [6] was 2.1 µM and the TGI [6] was 7.61 µM. It also gave a GI50 [7] of 4.87 µM, a TGI [7] of 19.1 µM and a GI50 [8] of 13.1 µM. It also gave a TGI [8] of 26.4 µM, a GI50 [9] of 1.82 µM and a TGI [9] of 3.68 µM. It also gave a GI50 [10] of 4.27 µM and a TGI [10] of 15.4 µM.
CCCCCCCCCCCCC(O)c1ccc(C#CCCCCCCCCCO)o1 (stereo not given) was tested, and the GI50 [1] was 20.5 µM, the TGI [1] was 39.9 µM and the GI50 [2] was 19.8 µM. It also gave a TGI [2] of 37.9 µM, a GI50 [3] of 25.2 µM and a TGI [3] of 59.6 µM. It also gave a GI50 [4] of 16.4 µM, a TGI [4] of 31.7 µM and a GI50 [5] of 25.8 µM. For the same compound, the TGI [5] was 62.2 µM, the GI50 [6] was 24.1 µM and the TGI [6] was 51 µM. The GI50 [7] was 25.9 µM, the TGI [7] was 51.8 µM and the GI50 [9] was > 100 µM. For the same compound, the TGI [9] was > 100 µM, the GI50 [10] was 21.1 µM and the TGI [10] was 36.8 µM.
With COc1cccc(C(=O)NC(c2ccc(C)cc2)c2cc(Cl)c3cccnc3c2O)c1 (stereo not given) the GI50 [1] was 0.545 µM, the TGI [1] was 16.8 µM and the GI50 [2] was 0.474 µM. For the same compound, the TGI [2] was 9.33 µM, the GI50 [3] was 0.423 µM and the TGI [3] was 16.2 µM. It also gave a GI50 [4] of 0.382 µM, a TGI [4] of 15.3 µM and a GI50 [5] of 0.682 µM. For the same compound, the TGI [5] was 11.3 µM, the GI50 [6] was 0.653 µM and the TGI [6] was 12.7 µM. The GI50 [7] was 0.5 µM, the TGI [7] was 12.4 µM and the GI50 [8] was 1.28 µM. The TGI [8] was 11.6 µM, the GI50 [9] was 0.387 µM and the TGI [9] was 1.86 µM. For the same compound, the GI50 [10] was 0.445 µM and the TGI [10] was 3.27 µM.
CCOC(=S)SCC(=O)O was tested, and the TGI [1] was > 100 µM, the TGI [2] was > 100 µM and the TGI [3] was > 100 µM. The TGI [4] was > 100 µM, the TGI [5] was > 100 µM and the TGI [6] was > 100 µM. The TGI [7] was > 100 µM, the TGI [8] was > 100 µM and the TGI [9] was > 100 µM. The TGI [10] was > 100 µM.
With CN(C)c1cc(NN=C(c2ccc(O)cc2)c2ccc(O)cc2)c([N+](=O)[O-])cc1[N+](=O)[O-] the GI50 [1] was 3.73 µM, the TGI [1] was 13.8 µM and the GI50 [2] was 10.2 µM. For the same compound, the TGI [2] was 25.4 µM, the GI50 [3] was 4.85 µM and the TGI [3] was 32.2 µM. For the same compound, the GI50 [4] was 1.86 µM, the TGI [4] was 5.22 µM and the GI50 [5] was 14.4 µM. The TGI [5] was 36.6 µM, the GI50 [6] was 13.4 µM and the TGI [6] was 27.3 µM. The GI50 [7] was 7.16 µM, the TGI [7] was 24.8 µM and the GI50 [8] was 8.18 µM. It also gave a TGI [8] of 21.6 µM, a GI50 [9] of 8.52 µM and a TGI [9] of 24.7 µM. For the same compound, the GI50 [10] was 11.8 µM and the TGI [10] was 24.1 µM.
COc1ccc(-c2cn[nH]c2-c2cc(OC)c(OC)c(OC)c2)cc1 was tested, and the GI50 [1] was 0.0252 µM, the TGI [1] was 12 µM and the GI50 [2] was 0.0407 µM. It also gave a TGI [2] of 9.79 µM, a GI50 [3] of 0.0309 µM and a TGI [3] of 59.8 µM. The TGI [4] was 0.0379 µM, the GI50 [5] was 0.0293 µM and the TGI [5] was 9.12 µM. The GI50 [6] was 0.558 µM, the TGI [6] was > 49.6 µM and the GI50 [7] was 0.0363 µM. For the same compound, the TGI [7] was 19.9 µM, the TGI [8] was 0.0715 µM and the GI50 [9] was 0.0197 µM. The TGI [9] was 0.0482 µM, the GI50 [10] was 0.0218 µM and the TGI [10] was 0.0566 µM.
